Test results published in publication PMC2206373, “Identification of an altered peptide ligand based on the endogenously presented, rheumatoid arthritis-associated, human cartilage glycoprotein-39(263–275) epitope: an MHC anchor variant peptide for immune modulation” (Arthritis Research & Therapy, 2007).
Where two headings read alike, the source gives them in different places. Non-standard residues stand in square brackets, D forms with d. Residues, ends and D or L forms follow the SMILES beside them. No end group written: not given here. Dip = N[C@H](C(=O)O)C(c1ccccc1)c1ccccc1; Tic = O=C(O)[C@@H]1Cc2ccccc2CN1

How the values were obtained:
T cell hybridoma 8B12 = experiment: T hybridoma 8B12 IL-2 response; format: cell-based, mouse; details: for Hybridoma response (SI) 8B12: IL-2 by ELISA after 48 h, peptide 10 μg/ml, SI > 2 positive; for Hybridoma response (SI) 8B12 / T hybridoma (SI) 8B12: DRB1*0401 BLCL as APC; for T hybridoma (SI) 8B12: Figure 1, IL-2 production, duplicate or triplicate, background 16,288 counts, ±30% of WT response = super/partial agonist; for Hybridoma 8B12 activation (IL-2 production) in words: Figure 1 experiment, compared with WT peptide
Protocol: (§1) The T cell hybridomas, provided by G Sonderstrup (Stanford, CA, USA), were generated as described. In brief, human CD4, HLA-DRA*101/HLA-DRB*0401 triple transgenic (HLA-DR4trg) mice (devoid of I-Aβ) were immunized in the footpad with 50 μg of purified HC gp-39 mixed in incomplete Freund's adjuvant (IFA). Draining lymph nodes were isolated and T-cell hybridomas were generated by polyethylene glycol fusion of primed and in vitro antigen-restimulated lymph node cells with the AKR BW5147 fusion partner. Following fusion, growth-positive hybridoma wells were screened for reactivity to HC gp-39 and a set of 55 peptides (16 amino acids in length) covering the entire HC gp-39 sequence. HLA-DR4(B1*0401)-restricted hybridomas responsive to both the HC gp-39 protein and the immunodominant epitope 263–275 of HC gp-39 (for example, 5G11, 8B12, 14G11 and 20H5) were cloned, subcloned, characterised and selected for further study.
(§2) HC gp-39-specific IL-2 production by T hybridomas was measured in wells of round-bottomed microtiter plates. Hybridoma cells (2 to 5 × 10^4) and irradiated APC (0.5 to 1 × 10^5; 12,000 to 16,000 RAD) from the B lymphoblastoid cell line (BLCL) carrying the DRB1*0401 specificity were incubated in 150 μl volumes. Antigen was added in 50 μl volumes to duplicate wells. After 48 h, 100 μl of the culture supernatant was assayed for IL-2 production using a sandwich ELISA with Pharmingen antibodies specific for mouse IL-2. The antigen sensitivity of the hybridomas to both peptide and protein was determined (Figure 2). […] In later assays, an excess of peptide or APL (10 μg/ml), inducing maximal responses in all hybridomas, was tested.

T cell hybridoma 20H5 = experiment: T hybridoma 20H5 IL-2 response; format: cell-based, mouse; details: for Hybridoma response (SI) 20H5: IL-2 by ELISA after 48 h, peptide 10 μg/ml, DRB1*0401 BLCL as APC, SI > 2 positive
Protocol: as §1, §2

HLA-DR4(B1*0401) = HLA-DR4(B1*0401) (Homo sapiens, UniProt P01903+P01911, A100K/A169T/F76Y/I96L/K127E/L162R/M171V/N62H/P40V/Q125Y/R42H/S133A/S149N/S66Y/V115G/V209L/W38E); experiment: HLA-DR4 competition peptide binding assay; details: competition with biotinylated HA307-319 (Y309F) 50 nM, purified HLA-DR4 30 nM, pH 5, 48 h, room temperature
Protocol: HLA-DR bound marker peptide was separated from free marker peptide and the amount of bound marker peptide was detected and quantified by enhanced chemoluminescense. Inhibition curves were generated and the IC50 was determined. The concentration of competitor peptide inducing 50% inhibition of marker peptide binding was determined, and expressed as the 50% inhibitory concentration (IC50 in μM).

T cell hybridoma 5G11 = experiment: T hybridoma 5G11 IL-2 response; format: cell-based, mouse; details: for Hybridoma response (SI) 5G11: IL-2 by ELISA after 48 h, peptide 10 μg/ml, SI > 2 positive; for Hybridoma response (SI) 5G11 / T hybridoma (SI) 5G11: DRB1*0401 BLCL as APC; for T hybridoma (SI) 5G11: Figure 1, IL-2 production, duplicate or triplicate, background 29,203 counts, ±30% of WT response = super/partial agonist
Protocol: as §1, §2

T cell hybridoma 14G11 = experiment: T hybridoma 14G11 IL-2 response; format: cell-based, mouse; details: for Hybridoma response (SI) 14G11: IL-2 by ELISA after 48 h, peptide 10 μg/ml, SI > 2 positive; for Hybridoma response (SI) 14G11 / T hybridoma (SI) 14G11: DRB1*0401 BLCL as APC; for T hybridoma (SI) 14G11: Figure 1, IL-2 production, duplicate or triplicate, background 7,152 counts, ±30% of WT response = super/partial agonist; for Hybridoma 14G11 activation (IL-2 production) in words: Figure 1 experiment, compared with WT peptide
Protocol: as §1, §2

[1] = test system: popliteal lymph node cells from HC gp-39(263–275)-immunized huCD4, HLA-DR4 transgenic mice; experiment: Antigen-specific cytokine production of popliteal lymph node cells from WT peptide-immunized mice; format: cell-based, mouse; details: for IFNγ concentration / MIP1α concentration / RANTES concentration: 96 h supernatant, Luminex; for Ex vivo recall IFNγ production in words / Ex vivo recall Mip1α production in words / Ex vivo recall RANTES production in words: Figure 4a, WT peptide-immunized HLA-DR4trg mice
Protocol: (§3) Mice, obtained from L Fugger (Oxford, UK), were immunized in the hind footpads with 2 × 50 μg of purified recombinant HC gp-39, with 2 × 100 μg of the WT peptide or with 2 × 100 μg of the APL (F265(Dip); compound 28; Figure 1) mixed in IFA. Seven days later, popliteal lymph node cell suspensions (1 to 2 × 10^5 cells/well) were stimulated in vitro with HC gp-39 (50, 10 or 2 μg/ml), HC gp-39(263–275) or APL (10, 2 and 0.4 μg/ml). At 96 h, 50 μl of culture medium was harvested for analysis of antigen-specific cytokine production using Luminex technology (mouse cytokine 18 Plex Panel, catalogue no. 171-F11181, Biorad, Bio-Rad Laboratories, Hercules, CA, USA). In addition, cultures were labelled with tritiated thymidine (for 18 h) and antigen-specific proliferation was determined. We state that all animal experimentation received ethics approval and animals were treated according to the recognized guidelines.

[2] = test system: popliteal lymph node cells from HC gp-39(263–275)-immunized huCD4, HLA-DR4 transgenic mice; experiment: Antigen-specific proliferation of popliteal lymph node cells from WT peptide-immunized mice; format: cell-based, mouse; details: for Prol (SI): 96 h, tritiated thymidine, background 407 cpm, SI > 2 positive, SD not above 30%; for Ex vivo recall proliferative response in words: Figure 4a, WT peptide-immunized HLA-DR4trg mice
Protocol: as §3

[3] = test system: popliteal lymph node cells from F265(Dip)-immunized HLA-DR4trg mice; experiment: Antigen-specific cytokine production of popliteal lymph node cells from F265(Dip)-immunized mice; format: cell-based, mouse; details: Figure 4b
Protocol: as §3

[4] = test system: popliteal lymph node cells from F265(Dip)-immunized HLA-DR4trg mice; experiment: Antigen-specific proliferation of popliteal lymph node cells from F265(Dip)-immunized mice; format: cell-based, mouse; details: Figure 4b
Protocol: as §3

[5] = Table 1, background 7,470 counts, representative of at least three experiments
[6] = Table 1, background 35,749 counts, representative of at least three experiments
[7] = Table 1, geometric mean of two experiments, read-out: HLA-DR binding IC50
[8] = Table 1, background 8,147 counts, representative of at least three experiments
[9] = Table 1, background 8,598 counts, representative of at least three experiments
[10] = Figure 1, read-out: DRB1*0401 binding IC50

| Compound | Hybridoma response (SI) 8B12 (T cell hybridoma 8B12; [5]) [SI] | Hybridoma response (SI) 20H5 (T cell hybridoma 20H5; [6]) [SI] | IC50 (HLA-DR4(B1*0401); [7]) [nM] | Hybridoma response (SI) 5G11 (T cell hybridoma 5G11; [8]) [SI] | Hybridoma response (SI) 14G11 (T cell hybridoma 14G11; [9]) [SI] | In vitro recall IFNγ production in words [3] | In vitro recall Mip1α production in words [3] | In vitro recall RANTES production in words [3] | Ex vivo recall IFNγ production in words [1] | Ex vivo recall Mip1α production in words [1] | Ex vivo recall RANTES production in words [1] | T hybridoma (SI) 8B12 (T cell hybridoma 8B12) [SI] | Hybridoma 8B12 activation (IL-2 production) in words (T cell hybridoma 8B12) | Ex vivo recall proliferative response in words [2] | IC50 (HLA-DR4(B1*0401); [10]) [nM] | In vitro recall proliferative response in words [4] | T hybridoma (SI) 5G11 (T cell hybridoma 5G11) [SI] | T hybridoma (SI) 14G11 (T cell hybridoma 14G11) [SI] | Hybridoma 14G11 activation (IL-2 production) in words (T cell hybridoma 14G11) | other results |
| --- | --- | --- | --- | --- | --- | --- | --- | --- | --- | --- | --- | --- | --- | --- | --- | --- | --- | --- | --- | --- |
| TLASSETGVG [Compound 7] | 1 | 5 | > 100000 | 1 | 1 | – | – | – | – | – | – | – | – | – | – | – | – | – | – | – |
| LASSETGVG [Compound 8] | 1 | 1 | > 100000 | 1 | 1 | – | – | – | – | – | – | – | – | – | – | – | – | – | – | – |
| RSATLASSETGVG [Compound 12] | – | – | – | – | – | – | – | – | – | – | – | – | – | – | – | – | – | – | – | IFNγ concentration ([1]; peptide 2 μg/ml): <5 pg/mL; MIP1α concentration ([1]; peptide 2 μg/ml): <24 pg/mL; RANTES concentration ([1]; peptide 2 μg/ml): <6 pg/mL; IFNγ concentration ([1]; peptide 10 μg/ml): <5 pg/mL; MIP1α concentration ([1]; peptide 10 μg/ml): 27 pg/mL; RANTES concentration ([1]; peptide 10 μg/ml): 9 pg/mL; Reactivity of hybridoma 8B12 in words (T cell hybridoma 8B12; Table 2): affected to a lesser extent; Hybridoma response (SI) 8B12 (T cell hybridoma 8B12; Table 2, background 8,773 counts, SD not above 15%): 6 SI; Reactivity of hybridoma 20H5 in words (T cell hybridoma 20H5; Table 2): only slightly affected; Hybridoma response (SI) 20H5 (T cell hybridoma 20H5; Table 2, background 290,666 counts, SD not above 15%): 4 SI; Polyclonal response (proliferation and cytokine production) in words ([2]; Table 3, lymph node cells of WT peptide-immunized HLA-DR4trg mice): did not elicit a significant response; Prol (SI) ([2]; peptide 2 μg/ml): 1 SI; Prol (SI) ([2]; peptide 10 μg/ml): 3 SI; IC50 (HLA-DR4(B1*0401); Table 2, read-out: HLA-DR binding IC50): > 35000 nM; Recognition by hybridoma 5G11 in words (T cell hybridoma 5G11; Table 2): not recognized; Hybridoma response (SI) 5G11 (T cell hybridoma 5G11; Table 2, background 17,238 counts, SD not above 15%): 2 SI; Recognition by hybridoma 14G11 in words (T cell hybridoma 14G11; Table 2): not recognized; Hybridoma response (SI) 14G11 (T cell hybridoma 14G11; Table 2, background 10,131 counts, SD not above 15%): 2 SI |
| CC(C)C[C@H](NC(=O)[C@@H](NC(=O)[C@@H](NC(=O)[C@H](CO)NC(=O)[C@@H](N)CCCNC(=N)N)C(c1ccccc1)c1ccccc1)[C@@H](C)O)C(=O)N[C@@H](C)C(=O)N[C@@H](CO)C(=O)N[C@@H](CO)C(=O)N[C@@H](CCC(=O)O)C(=O)N[C@H](C(=O)NCC(=O)N[C@H](C(=O)NCC(=O)O)C(C)C)[C@@H](C)O [Compound 28] (H-RS[Dip]TLASSETGVG-OH) | – | – | – | – | – | barely detectable | barely detectable | barely detectable | lesser | unaltered | unaltered | 5 | partial activation | comparable proliferative responses | 10 | good proliferative activity | 29 | 6 | partial activation | – |
| CC(C)C[C@H](NC(=O)[C@@H](NC(=O)[C@@H]1Cc2ccccc2CN1C(=O)[C@H](CO)NC(=O)[C@@H](N)CCCNC(=N)N)[C@@H](C)O)C(=O)N[C@@H](C)C(=O)N[C@@H](CO)C(=O)N[C@@H](CO)C(=O)N[C@@H](CCC(=O)O)C(=O)N[C@H](C(=O)NCC(=O)N[C@H](C(=O)NCC(=O)O)C(C)C)[C@@H](C)O [Compound 27] (H-RS[Tic]TLASSETGVG-OH) | – | – | – | – | – | failed to induce significant levels | failed to induce significant levels | failed to induce significant levels | increased production | increased production | increased production | 8 | partial activation | comparable proliferative responses | 21 | – | 12 | 21 | partial activation | Hybridoma 5G11 activation (IL-2 production) in words (T cell hybridoma 5G11; Figure 1 experiment, compared with WT peptide): partial activation |
| human cartilage glycoprotein-39 [HC gp-39 protein] | – | – | – | – | – | failed to induce significant levels | failed to induce significant levels | failed to induce significant levels | – | – | – | – | – | – | – | somewhat less | – | – | – | – |
